Measurements: PMC10580953, “In vitro and intracellular activities of novel thiopeptide derivatives against macrolide-susceptible and macrolide-resistant Mycobacterium avium complex” (Microbiology Spectrum, 2023)
≈ marks a conversion by molar mass, not a printed value. Entries after “also recorded” stand apart in the source; their conditions may differ.

Experiments:
M. avium ATCC 700898 = details: for drug-drug interaction with CLR: synergism FICI ≤0.5, additive 0.5 < FICI ≤ 1, indifferent 1 < FICI ≤ 4, antagonistic FICI >4
Description: (§1) To evaluate the efficacy of the combination of agent A and agent B, a fractional inhibitory concentration (FIC) index was calculated as follows: FICI = (FIC of agent A) + (FIC of agent B) = (MIC of agent A in combination/MIC of agent A alone) + (MIC of agent B in combination/MIC of agent B alone). Synergism is defined as FICI ≤0.5, additive as 0.5 < FICI ≤ 1, indifferent as 1 < FICI ≤ 4, and antagonistic as FICI >4. The cultured bacteria were diluted to a 0.005 OD600 in 7H9 broth containing 5% OADC, and the antimicrobial agents were prepared by serial dilutions to a final concentration of 0.03–4 μg/mL. For the evaluation of inhibitory concentrations, the plates were incubated at 37°C for 5–7 d. Then, MIC values were assessed by REMA, and the FICI was calculated.

[1] = tested on: M. intracellulare ATCC 13950; details: for drug-drug interaction with CLR: synergism FICI ≤0.5, additive 0.5 < FICI ≤ 1, indifferent 1 < FICI ≤ 4, antagonistic FICI >4
Description: as §1

[2] = Aqueous kinetic solubility; format: physicochemical; details: for solubility at 2 h: aqueous buffer, kinetic from dmso stock, free form, deionized water pH 7.4, 1% DMSO; for Fold increase, Free form: solubility of free form compared to MP2; for solubility: thermodynamic from solid, HCl salt in deionized water
Description: The aqueous kinetic solubility was determined by preparing a 20 mM DMSO stock solution of test compounds and incubating an aliquot of this solution in deionized water at pH 7.4 to set a 1% final concentration of DMSO. In the case of HCl salt compounds, 1–2 mg of compound was weighed and dissolved in deionized water to yield an approximately 10 mg/mL solution. After initial mixing using brief vortexing and sonication, samples were equilibrated by shaking for 2 h at room temperature. Suspensions or solutions with visible particles were filtered through 0.22 µm PVDF membrane filters. The dissolved drug concentration was analyzed using UPLC-MS. To determine the solubility of the HCl salt, 1 mg of compound was weighed into a 2 mL glass tube, and a fixed volume of deionized water was added to yield an approximately 10 mg/mL solution. The solution was equilibrated by shaking for 24 h at room temperature. After equilibration, the vials were visually examined. If a clear solution was obtained, solubility was reported as >mg/mL.

M. avium in murine BMDMs = test: Intracellular anti-MAC activity in infected BMDMs, M. avium; format: cell-based, Mycobacterium avium
Description: (§2) BMDMs were obtained from 6-week-old female BALB/c mice. Bone marrow cells were differentiated into BMDMs using Dulbecco’s Modified Eagle Medium (Biowest) supplemented with 10% fetal bovine serum (Biowest) and 10% L929 cell supernatant as previously described ([58]).
(§3) BMDMs were seeded at 4 × 10^5 cells/mL in a 48-well plate and incubated overnight at 37°C. MAC strains were infected at a multiplicity of infection of 3 for 4 h and washed with DPBS twice. The cells were then cultured in the absence or presence of drugs in triplicate wells for 72 h. After incubation, the cells were lysed with 0.05% Triton X-100, and the cell lysates serially diluted with DPBS were spotted on 7H10 agar plates supplemented with OADC to count the number of viable bacteria. Colonies were enumerated after 7 d of incubation at 37°C, and the values are reported as the mean CFU ± standard deviation (SD) per mL. All experiments were repeated at least three times independently.

MAC in murine BMDMs = test: Intracellular anti-MAC activity in infected BMDMs, summary statements for MAC; format: cell-based, Mycobacterium avium complex; details: for intracellular activity in BMDMs infected with macrolide-resistant MAC clinical isolates: 10 µg/mL, 72 h (Fig. 5 and 6)
Description: as §2, §3

[3] = tested on: macrolide-resistant M. avium; test: MIC by REMA, macrolide-resistant M. avium strains
Description: (§4) Reference strains were purchased from the American Type Culture Collection (ATCC; Manassas, VA, USA). All clinical MAC isolates, including macrolide-susceptible and macrolide-resistant strains, were kindly provided by Samsung Medical Center (SMC; Seoul, South Korea) and Asan Medical Center (AMC; Seoul, South Korea). All strains were cultivated in Middlebrook 7H9 liquid broth (Difco Laboratories, Detroit, MI) supplemented with 10% oleic acid-albumin-dextrose-catalase (OADC) or plated on Middlebrook 7H10 agar (Difco Laboratories) with 10% OADC enrichment at 37°C.
(§5) The MICs of all the reagents were determined using the REMA method based on guidelines by the Clinical and Laboratory Standards Institute ([57]). […] The cultures were diluted to an OD600 = 0.001 in 7H9 broth with 5% OADC. […] Two controls (broth only and bacteria only) were incubated to check for other contamination (broth only) and the growth of tested bacteria (bacteria only).
(§6) PCR amplification and sequencing for CLR were based on 23S rRNA. The primers and PCR conditions were as reported previously ([59]). PCR was carried out in a final volume of 20 µL and contained EzPCR Basic 5 × premix (ELPIS, Daejeon, South Korea), 13 µL of sterile dH2O, 1 µL of each forward and reverse primer, and 1 µL of template DNA. The PCR products were run on 1% agarose gels and purified using a NEXprep Gel/PCR Purification Mini Kit (Geneslabs, Gyeonggi, South Korea) for DNA cleanup. Purified PCR products were sequenced by Sanger sequencing in Bionics (Seoul, South Korea) with their gene-specific forward and reverse primers. Sequences obtained from Bionics were subjected to BLAST searches to compare nucleotide sequences with reference strains.

M. avium = test: MIC by resazurin microtiter assay (REMA), M. avium strains
Description: (§7) Reference strains were purchased from the American Type Culture Collection (ATCC; Manassas, VA, USA). […] All strains were cultivated in Middlebrook 7H9 liquid broth (Difco Laboratories, Detroit, MI) supplemented with 10% oleic acid-albumin-dextrose-catalase (OADC) or plated on Middlebrook 7H10 agar (Difco Laboratories) with 10% OADC enrichment at 37°C.
as §5

[4] = tested on: macrolide-resistant M. intracellulare; test: MIC by REMA, macrolide-resistant M. intracellulare strains; details: Mycobacterium intracellulare
Description: as §4, §5, §6

M. intracellulare = test: MIC by resazurin microtiter assay (REMA), M. intracellulare strains
Description: as §7, §5

[5] = tested on: macrolide-resistant M. avium clinical isolates in BMDMs; test: Intracellular activity in BMDMs, macrolide-resistant M. avium clinical isolates; format: cell-based, Mycobacterium avium; details: five macrolide-resistant M. avium clinical isolates, 10 µg/mL, 72 h (Fig. 5)
Description: as §2, §3

[6] = combination with CLR, synergism FICI ≤0.5, additive 0.5 < FICI ≤ 1
[7] = M. avium (SMC#1216), 23S rRNA A2058/A2059 C/A
[8] = Mycobacterium avium, M. avium (SMC#420), 23S rRNA A2058/A2059 C/A
[9] = Mycobacterium avium, M. avium (SMC#422), 23S rRNA A2058/A2059 A/G
[10] = Mycobacterium avium, M. avium (SMC#1213), 23S rRNA A2058/A2059 T/A
[11] = Mycobacterium avium, M. avium (SMC#6)
[12] = Mycobacterium avium, M. avium (SMC#1637)
[13] = M. intracellulare (AMC#24), 23S rRNA A2058/A2059 G/A
[14] = M. intracellulare (SMC#104), 23S rRNA A2058/A2059 G/A
[15] = M. intracellulare (SMC#400), 23S rRNA A2058/A2059 C/A
[16] = M. intracellulare (SMC#414), 23S rRNA A2058/A2059 A/G
[17] = M. intracellulare (SMC#418), 23S rRNA A2058/A2059 G/A
[18] = Mycobacterium avium, ATCC700898
[19] = Mycobacterium intracellulare, ATCC13950, M. intracellulare (ATCC 13950), reference strain
[20] = Mycobacterium intracellulare, M. intracellulare (SMC#8)
[21] = Mycobacterium intracellulare, M. intracellulare (SMC#12)

Structure (SMILES)	drug-drug interaction with CLR (M. avium ATCC 700898)	drug-drug interaction with CLR [1]	solubility at 2 h [2]	Fold increase, Free form [2]	solubility [2]	intracellular activity in BMDMs infected with macrolide-resistant MAC clinical isolates (MAC in murine BMDMs)	MIC [3, 7]	MIC ([3]; Mycobacterium avium)	MIC [3, 8]	MIC [3, 9]	MIC [3, 10]	MIC (M. avium; [11])	MIC (M. avium; [12])	MIC [4, 13]	MIC [4, 14]	MIC [4, 15]	MIC [4, 16]	MIC (M. intracellulare; M. intracellulare (SMC#831))	MIC (M. intracellulare; M. intracellulare (SMC#2087))	MIC (M. intracellulare; Mycobacterium intracellulare)	further results
COc1nc2ccc(Br)cc2cc1[C@@H](c1ccccc1)[C@@](O)(CCN(C)C)c1cccc2ccccc12 [bedaquiline, reference compound]	synergistic effects were not observed	synergistic effects were not observed	–	–	–	–	–	–	–	–	–	–	–	–	–	–	–	–	–	–	–
C/C=C1\NC(=O)[C@H]([C@@H](C)O)NC(=O)c2csc(n2)-c2ccc(-c3nc(-c4nc(C(=O)NC5(C(=O)NCCCN6C(=O)CNC6=O)CC5)cs4)cs3)nc2-c2csc(n2)[C@H]([C@@H](C)O)NC(=O)c2csc(n2)[C@H](C(C)C)NC(=O)c2csc1n2 [AJ-039]	additive effect	additive effect	2.98 µg/mL (≈ 2.43 µM)	×43 fold	25.2 µg/mL	relatively little activity	0.125 µg/mL (≈ 0.102 µM)	0.125 µg/mL (≈ 0.102 µM)	0.5 µg/mL (≈ 0.408 µM)	4 µg/mL (≈ 3.26 µM)	2 µg/mL (≈ 1.63 µM)	0.125 µg/mL (≈ 0.102 µM)	0.125 µg/mL (≈ 0.102 µM)	0.125 µg/mL (≈ 0.102 µM)	0.125 µg/mL (≈ 0.102 µM)	0.125 µg/mL (≈ 0.102 µM)	0.125 µg/mL (≈ 0.102 µM)	0.125 µg/mL (≈ 0.102 µM)	0.125 µg/mL (≈ 0.102 µM)	0.125 µg/mL (≈ 0.102 µM)	Fold increase, HCl salt ([2]; solubility of HCl salt compared to MP2): ×360 fold; CFUs in BMDMs, drug alone (M. avium in murine BMDMs; M. avium SMC#7 (Fig. 2C)): did not reduce CFUs; intracellular activity of combination with CLR compared to CLR alone (M. avium in murine BMDMs; M. avium SMC#7, each drug 10 µg/mL, 72 h): not significant compared to that of CLR alone; FICI (M. avium ATCC 700898; [6]): 0.54; FICI [1, 6]: 0.56; MIC (M. avium; Mycobacterium avium, ATCC700898, M. avium (ATCC 700898), reference strain): 0.125 µg/mL (≈ 0.102 µM); MIC (M. avium; Mycobacterium avium, M. avium (CP000479.1), reference strain): 0.125 µg/mL (≈ 0.102 µM); MIC (M. avium; Mycobacterium avium, M. avium (SMC#7)): 0.125 µg/mL (≈ 0.102 µM); MIC [4, 17]: 0.125 µg/mL (≈ 0.102 µM); MIC (M. intracellulare; M. intracellulare (SMC#8)): 0.125 µg/mL (≈ 0.102 µM); MIC (M. intracellulare; M. intracellulare (SMC#9)): 0.125 µg/mL (≈ 0.102 µM); MIC (M. intracellulare; M. intracellulare (SMC#12)): 0.125 µg/mL (≈ 0.102 µM); MIC (M. intracellulare; M. intracellulare (SMC#699)): 0.125 µg/mL (≈ 0.102 µM); MIC (M. intracellulare; Mycobacterium intracellulare, ATCC13950): 0.125 µg/mL (≈ 0.102 µM)
CC[C@H]1OC(=O)[C@H](C)[C@@H](O[C@H]2C[C@@](C)(OC)[C@@H](O)[C@H](C)O2)[C@H](C)[C@@H](O[C@@H]2O[C@H](C)C[C@H](N(C)C)[C@H]2O)[C@](C)(OC)C[C@@H](C)C(=O)[C@H](C)[C@@H](O)[C@]1(C)O [CLR, clarithromycin, reference compound]	–	–	–	–	–	resistance	–	–	> 64 µg/mL	> 64 µg/mL	> 64 µg/mL	0.125 µg/mL (≈ 0.167 µM)	0.125 µg/mL (≈ 0.167 µM)	> 64 µg/mL	> 64 µg/mL	> 64 µg/mL	> 64 µg/mL	0.125 µg/mL (≈ 0.167 µM)	0.125 µg/mL (≈ 0.167 µM)	0.125 µg/mL (≈ 0.167 µM)	MIC ([3]; Mycobacterium avium, M. avium (SMC#417), 23S rRNA A2058/A2059 C/A): > 64 µg/mL; MIC ([3]; Mycobacterium avium, M. avium (SMC#1216), 23S rRNA A2058/A2059 C/A): > 64 µg/mL; MIC (M. avium; M. avium (SMC#7)): 0.5 µg/mL (≈ 0.668 µM); MIC (M. avium; Mycobacterium avium): 0.5 µg/mL (≈ 0.668 µM); MIC (M. avium; [18]): 0.5 µg/mL (≈ 0.668 µM); MIC [4, 17]: > 64 µg/mL; MIC (M. intracellulare; M. intracellulare (SMC#9)): 0.125 µg/mL (≈ 0.167 µM); MIC (M. intracellulare; M. intracellulare (SMC#699)): 0.125 µg/mL (≈ 0.167 µM); MIC (M. intracellulare; [19]): 0.25 µg/mL (≈ 0.334 µM); MIC (M. intracellulare; [20]): 0.25 µg/mL (≈ 0.334 µM); MIC (M. intracellulare; [21]): 0.25 µg/mL (≈ 0.334 µM)
C/C=C1\NC(=O)[C@H]([C@@H](C)O)NC(=O)c2csc(n2)-c2ccc(-c3nc(-c4nc(C(=O)NC5(C(=O)NCCN6CCN(C[C@@H](O)CO)CC6)CC5)cs4)cs3)nc2-c2csc(n2)[C@H]([C@@H](C)O)NC(=O)c2csc(n2)[C@H](C(C)C)NC(=O)c2csc1n2 [AJ-206]	strongest synergistic effect; also recorded: Synergistic effects	relatively weak but synergistic effect; also recorded: Synergistic effects	102 µg/mL (≈ 80.2 µM)	×1,457 fold	> 10000 µg/mL	significant decrease in CFUs	0.125 µg/mL (≈ 0.0982 µM)	0.125 µg/mL (≈ 0.0982 µM)	0.5 µg/mL (≈ 0.393 µM)	1 µg/mL (≈ 0.786 µM)	1 µg/mL (≈ 0.786 µM)	0.125 µg/mL (≈ 0.0982 µM)	0.125 µg/mL (≈ 0.0982 µM)	0.125 µg/mL (≈ 0.0982 µM)	0.125 µg/mL (≈ 0.0982 µM)	–	0.125 µg/mL (≈ 0.0982 µM)	0.125 µg/mL (≈ 0.0982 µM)	0.125 µg/mL (≈ 0.0982 µM)	0.125 µg/mL (≈ 0.0982 µM)	intracellular growth of MAC in BMDMs (MAC in murine BMDMs; MAC-infected BMDMs, 72 h (Fig. 2)): remarkably inhibited the intracellular growth of MAC to a similar degree as CLR; also recorded: significantly reduced the number of MAC CFUs inside macrophages; intracellular bacterial growth in BMDMs [5]: notably inhibited intracellular bacterial growth; MIC (M. avium; M. avium (SMC#7)): 0.5 µg/mL (≈ 0.393 µM); MIC (M. avium; Mycobacterium avium): 0.5 µg/mL (≈ 0.393 µM); MIC (M. avium; [18]): 0.5 µg/mL (≈ 0.393 µM); MIC (M. intracellulare; [19]): 0.5 µg/mL (≈ 0.393 µM); MIC (M. intracellulare; Mycobacterium intracellulare, M. intracellulare (SMC#7)): 0.25 µg/mL (≈ 0.196 µM); MIC (M. intracellulare; [20]): 0.5 µg/mL (≈ 0.393 µM); MIC (M. intracellulare; [21]): 0.5 µg/mL (≈ 0.393 µM); MIC (M. intracellulare; Mycobacterium intracellulare, M. intracellulare (SMC#699)): 0.5 µg/mL (≈ 0.393 µM)
